{
  "source": "patent US20240183860A1",
  "about": "“Chimeric ABC Transporters and Screening Methods” (Genentech, Inc., priority 2021, published 2024)",
  "molecular_target": "T1, E. coli MsbA (EcMsbA) (Escherichia coli, UniProt P60752)",
  "T1 construct": "FLAG (N); made in house; host or cells: E. coli (strain for the WT protein not restated)",
  "T1 sequence (P60752 whole entry)": "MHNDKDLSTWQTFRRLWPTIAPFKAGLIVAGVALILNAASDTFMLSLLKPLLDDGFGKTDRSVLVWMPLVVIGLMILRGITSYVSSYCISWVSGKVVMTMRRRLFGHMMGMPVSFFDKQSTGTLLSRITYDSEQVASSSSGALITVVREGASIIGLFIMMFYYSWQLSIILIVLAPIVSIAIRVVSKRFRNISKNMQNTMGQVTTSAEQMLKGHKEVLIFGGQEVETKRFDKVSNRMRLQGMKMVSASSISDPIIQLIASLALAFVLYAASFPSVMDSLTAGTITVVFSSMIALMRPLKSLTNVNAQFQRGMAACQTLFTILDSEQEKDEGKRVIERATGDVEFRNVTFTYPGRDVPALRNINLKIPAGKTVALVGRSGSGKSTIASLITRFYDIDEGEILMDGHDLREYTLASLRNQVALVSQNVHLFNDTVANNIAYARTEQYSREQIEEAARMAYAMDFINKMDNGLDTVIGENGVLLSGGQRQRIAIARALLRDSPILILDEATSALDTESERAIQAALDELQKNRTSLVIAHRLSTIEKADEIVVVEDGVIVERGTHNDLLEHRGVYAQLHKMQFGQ",
  "assay": "MsbA ATPase assay (Transcreener ADP2 FP)",
  "type": "biochemical",
  "details": "IC50 for inhibition of ATPase activity of MsbA, experiment of FIG. 3F / b233",
  "description": "The ATPase activity of MsbA was measured using a Transcreener ADP2 FP Assay (BellBrook Labs). […] The final condition for the reaction was MsbA enzyme, 50 μM ATP in 50 mM Tris pH 7.5, 10 mM MgCl2, 1% glycerol, 0.1% bovine gamma globulin, 1 mM dithiothreitol (DTT), 0.007% Brij-35 and 0.5% dimethylsulfoxide (DMSO). The following concentrations were used for each MsbA variant: 5 nM of EcMsbA, EnMsbA, KpMsbA and 80 nM PaMsbA reconstituted in amphipol, 15 nM EcMsbA and EcMsbA-chim5 in LMNG detergent, 22 nM EcMsbA and 27 nM EcMsbA-12G7 complex in aDDM detergent. The enzyme reaction was incubated for 1 hour at room temperature, then quenched by adding the Transcreener Detection Buffer. The IC50 was determined by fitting the inhibition dose-response curve with a nonlinear four-parameter inhibition model (GraphPad Prism).",
  "note": "Bridge positions count the residues as written; N and C are the ends. Square brackets hold non-standard residues; d marks the D form. Peptide text beside a SMILES is read from it. NMeF = CN[C@@H](Cc1ccccc1)C(=O)O; NMeA = CN[C@@H](C)C(=O)O; Sar = CNCC(=O)O",
  "data": [
    {"smiles": "CC(C)C[C@@H]1NC(=O)[C@H](Cc2c[nH]c3ccccc23)NC(=O)[C@H](Cc2c[nH]c3ccccc23)NC(=O)[C@H](Cc2ccccc2)NC(=O)CSC[C@@H](C(N)=O)NC(=O)[C@H](C(C)C)NC(=O)[C@H](Cc2ccccc2)N(C)C(=O)[C@H](Cc2c[nH]c3ccccc23)NC(=O)[C@H](Cc2c[nH]c3ccccc23)NC(=O)[C@H](CC(=O)O)NC(=O)CN(C)C(=O)[C@H](CC(=O)O)NC(=O)[C@H](CO)NC(=O)[C@H](Cc2c[nH]c3ccccc23)NC1=O", "note": "[Compound G1119] ({CH2CO}-FWWLWSD[Sar]DWW[NMeF]VC-NH2; thioether N-14)", "values": [
      {"measurement": "IC50", "result": 5, "unit": "nM"}
    ]},
    {"smiles": "CC(C)C[C@@H]1NC(=O)CNC(=O)[C@H](Cc2c[nH]c3ccccc23)NC(=O)[C@H](C)N(C)C(=O)[C@H](Cc2c[nH]c3ccccc23)NC(=O)[C@H](CC(C)C)NC(=O)[C@H](Cc2ccc(O)cc2)NC(=O)[C@H](CCCNC(=N)N)NC(=O)[C@H](Cc2ccccc2)NC(=O)CSC[C@@H](C(N)=O)NC(=O)[C@H](CC(N)=O)NC(=O)[C@H](CC(=O)O)NC(=O)[C@H](Cc2c[nH]c3ccccc23)NC(=O)[C@H](C(C)C)NC1=O", "note": "[Compound G1122] ({CH2CO}-FRYLW[NMeA]WGLVWDNC-NH2; thioether N-14)", "values": [
      {"measurement": "IC50", "result": 2, "unit": "nM"}
    ]}
  ]
}
